# Assay results published in patent US12655127B2, “Fused ring compound as Wee-1 inhibitor” (WIGEN BIOMEDICINE TECHNOLOGY (SHANGHAI) CO., LTD., priority 2021, dated 2026).
# Target: recombinant protein Wee-1 (Homo sapiens, UniProt P30291)
# Assay: Inhibition of enzymatic activity of recombinant protein Wee-1 (HTRF)
# Type: biochemical
# Description: The inhibitory effect of the compounds on the enzyme activity of recombinant protein Wee-1 was determined by HTRF. The procedures are as follows:
# After DMSO or serially diluted compounds (up to 200 nM, 1:5 serially diluted) and recombinant proteins were co-incubated in a kinase buffer at 37° C. for 30 min Fluorescein-PolyGAT and ATP were added, and then the reaction was started by the addition of a substrate. After incubation at room temperature for 90 min, an antibody and a detection solution were added, and after further incubation at room temperature for 60 min, fluorescence values were detected (excitation wavelength: 340 nm, emission wavelengths: 495 and 520 nm). The 520 nm/495 nm fluorescence intensity ratio value was calculated, and compared with that of the DMSO group, and then the inhibition percentages and IC50 values of the compounds were calculated.
# Sequence of recombinant protein Wee-1 (P30291 whole entry): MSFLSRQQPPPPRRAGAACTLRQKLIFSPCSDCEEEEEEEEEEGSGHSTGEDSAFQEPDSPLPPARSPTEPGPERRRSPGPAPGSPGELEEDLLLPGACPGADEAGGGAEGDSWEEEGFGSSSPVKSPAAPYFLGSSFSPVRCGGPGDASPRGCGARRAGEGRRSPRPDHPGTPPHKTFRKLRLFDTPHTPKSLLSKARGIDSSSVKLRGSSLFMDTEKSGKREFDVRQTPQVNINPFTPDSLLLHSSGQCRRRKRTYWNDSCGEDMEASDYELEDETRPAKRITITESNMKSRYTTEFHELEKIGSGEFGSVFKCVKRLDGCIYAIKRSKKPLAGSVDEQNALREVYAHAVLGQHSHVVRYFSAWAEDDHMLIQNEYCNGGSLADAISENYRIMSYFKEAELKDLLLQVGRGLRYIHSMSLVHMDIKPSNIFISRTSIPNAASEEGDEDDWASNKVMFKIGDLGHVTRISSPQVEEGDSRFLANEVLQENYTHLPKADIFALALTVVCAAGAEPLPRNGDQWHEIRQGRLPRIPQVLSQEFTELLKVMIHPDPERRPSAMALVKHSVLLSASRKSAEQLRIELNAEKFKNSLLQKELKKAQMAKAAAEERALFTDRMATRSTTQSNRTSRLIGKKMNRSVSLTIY
row,IC50 [nM],Structure (SMILES)
1,≤ 10,"CN1Cc2cc(Nc3ncc(C#N)c(Nc4cccc(P(C)(C)=O)n4)n3)cc3c2[C@H](CCC3)C1 (single isomer, unassigned) [Compound 138]"
2,≤ 10,"CN1Cc2cc(Nc3ncc(C#N)c(Nc4cccc(P(C)(C)=O)n4)n3)cc3c2[C@@H](CCC3)C1 (single isomer, unassigned) [Compound 139]"
3,≤ 10,CCN1Cc2cc(Nc3ncc(C#N)c(Nc4cccc(N=S(C)(C)=O)n4)n3)cc3c2C(CCC3)C1 (stereo not drawn) [Compound 7]
4,≤ 10,CCN1Cc2cc(Nc3ncc(C#N)c(Nc4cccc(N=S(C)(C)=O)n4)n3)cc3c2[C@H](CCC3)C1 [Compound 8]
5,≤ 10,CCN1Cc2cc(Nc3ncc(C#N)c(Nc4cccc(N=S(C)(C)=O)n4)n3)cc3c2[C@@H](CCC3)C1 [Compound 9]
6,≤ 10,CC(C)N1Cc2cc(Nc3ncc(C#N)c(Nc4cccc(N=S(C)(C)=O)n4)n3)cc3c2C(CCC3)C1 (stereo not drawn) [Compound 10]
7,≤ 10,CC(C)N1Cc2cc(Nc3ncc(C#N)c(Nc4cccc(N=S(C)(C)=O)n4)n3)cc3c2[C@H](CCC3)C1 [Compound 11]
8,≤ 10,CC(C)N1Cc2cc(Nc3ncc(C#N)c(Nc4cccc(N=S(C)(C)=O)n4)n3)cc3c2[C@@H](CCC3)C1 [Compound 12]
9,≤ 10,CS(C)(=O)=Nc1cccc(Nc2nc(Nc3cc4c5c(c3)CN(C3CC3)CC5CCC4)ncc2C#N)n1 (stereo not drawn) [Compound 13]
10,≤ 10,CS(C)(=O)=Nc1cccc(Nc2nc(Nc3cc4c5c(c3)CN(C3CC3)C[C@H]5CCC4)ncc2C#N)n1 [Compound 14]
11,≤ 10,CS(C)(=O)=Nc1cccc(Nc2nc(Nc3cc4c5c(c3)CN(C3CC3)C[C@@H]5CCC4)ncc2C#N)n1 [Compound 15]
12,≤ 10,CS(C)(=O)=Nc1cccc(Nc2nc(Nc3cc4c5c(c3)CN(CCO)CC5CCC4)ncc2C#N)n1 (stereo not drawn) [Compound 16]
13,≤ 10,CN(C)CCN1Cc2cc(Nc3ncc(C#N)c(Nc4cccc(N=S(C)(C)=O)n4)n3)cc3c2C(CCC3)C1 (stereo not drawn) [Compound 17]
14,≤ 10,CS(C)(=O)=Nc1cccc(Nc2nc(Nc3cc4c5c(c3)CN(CC3CC3)CC5CCC4)ncc2C#N)n1 (stereo not drawn) [Compound 18]
15,≤ 10,CN1CC2CCCc3cc(Nc4ncc(C#N)c(Nc5cccc(N=S(C)(C)=O)n5)n4)cc(c32)C12CC2 (stereo not drawn) [Compound 19]
16,≤ 10,CN1CC2CCCc3cc(Nc4ncc(C#N)c(Nc5cccc(N=S(C)(C)=O)n5)n4)cc(c32)C1(C)C (stereo not drawn) [Compound 20]
17,≤ 10,CN1C[C@H]2CCCc3cc(Nc4ncc(C#N)c(Nc5cccc(N=S(C)(C)=O)n5)n4)cc(c32)C1(C)C [Compound 21]
18,≤ 10,CN1C[C@@H]2CCCc3cc(Nc4ncc(C#N)c(Nc5cccc(N=S(C)(C)=O)n5)n4)cc(c32)C1(C)C [Compound 22]
19,≤ 10,CN1Cc2cc(Nc3ncc(C#N)c(Nc4cccc(N=S(C)(C)=O)n4)n3)cc3c2C(CCC3)C12CC2 (stereo not drawn) [Compound 23]
20,≤ 10,CN1Cc2cc(Nc3ncc(C#N)c(Nc4cccc(N=S(C)(C)=O)n4)n3)cc3c2[C@H](CCC3)C1(C)C [Compound 24]
21,≤ 10,CN1Cc2cc(Nc3ncc(C#N)c(Nc4cccc(N=S(C)(C)=O)n4)n3)cc3c2[C@@H](CCC3)C1(C)C [Compound 25]
22,≤ 10,CN1Cc2cc(Nc3ncc(C#N)c(Nc4cccc(N=S(C)(C)=O)n4)n3)cc3c2C(C1)CC1(CC1)C3 (stereo not drawn) [Compound 26]

row,IC50 [nM],Structure (SMILES)
1,≤ 10,CN1Cc2cc(Nc3ncc(C#N)c(Nc4cccc(N=S(C)(C)=O)n4)n3)cc3c2C(C1)CC(C)(C)C3 (stereo not drawn) [Compound 27]
2,≤ 10,CN1Cc2cc(Nc3ncc(C#N)c(Nc4cccc(N=S(C)(C)=O)n4)n3)cc3c2C(C1)CC(F)(F)C3 (stereo not drawn) [Compound 28]
3,≤ 10,CN1Cc2cc(Nc3ncc(C#N)c(Nc4cccc(N=S(C)(C)=O)n4)n3)cc3c2C(C1)C1(CC3)CC1 (stereo not drawn) [Compound 29]
4,≤ 10,CN1Cc2cc(Nc3ncc(C#N)c(Nc4cccc(N=S(C)(C)=O)n4)n3)cc3c2C(C1)C(C)(C)CC3 (stereo not drawn) [Compound 30]
5,≤ 10,CN1Cc2cc(Nc3ncc(C#N)c(Nc4cccc(N=S(C)(C)=O)n4)n3)cc3c2C(C1)C(F)(F)CC3 (stereo not drawn) [Compound 31]
6,≤ 10,CN1Cc2cc(Nc3ncc(C#N)c(Nc4cccc(N=S(C)(C)=O)n4)n3)cc3c2C(CCC32CC2)C1 (stereo not drawn) [Compound 32]
7,≤ 10,CN1Cc2cc(Nc3ncc(C#N)c(Nc4cccc(N=S(C)(C)=O)n4)n3)cc3c2C(CCC3(C)C)C1 (stereo not drawn) [Compound 33]
8,≤ 10,CN1Cc2cc(Nc3ncc(C#N)c(Nc4cccc(N=S(C)(C)=O)n4)n3)cc3c2C(CCC3(F)F)C1 (stereo not drawn) [Compound 34]
9,≤ 10,CN1Cc2cc(Nc3ncc(C#N)c(Nc4cccc(N=S(C)(C)=O)n4)n3)cc3c2C(CC=C3)C1 (stereo not drawn) [Compound 35]
10,≤ 10,CN1Cc2cc(Nc3ncc(C#N)c(Nc4cccc(N=S(C)(C)=O)n4)n3)cc3c2C(C=CC3)C1 (stereo not drawn) [Compound 36]
11,≤ 10,CN1Cc2cc(Nc3ncc(C#N)c(Nc4cccc(N=S(C)(C)=O)n4)n3)cc3c2C(CC2CC32)C1 (stereo not drawn) [Compound 37]
12,≤ 10,CN1Cc2cc(Nc3ncc(C#N)c(Nc4cccc(N=S(C)(C)=O)n4)n3)cc3c2C(C1)C1CC1C3 (stereo not drawn) [Compound 38]
13,≤ 10,CN1Cc2cc(Nc3ncc(C#N)c(Nc4cccc(N=S(C)(C)=O)n4)n3)cc3c2C2(CC2CC3)C1 (stereo not drawn) [Compound 39]
14,≤ 10,CN1Cc2nc(Nc3ncc(C#N)c(Nc4cccc(N=S(C)(C)=O)n4)n3)cc3c2C(CCC3)C1 (stereo not drawn) [Compound 40]
15,≤ 10,Cc1c(Nc2ncc(C#N)c(Nc3cccc(N=S(C)(C)=O)n3)n2)cc2c3c1CN(C)CC3CCC2 (stereo not drawn) [Compound 41]
16,≤ 10,CN1Cc2c3c(cc(Nc4ncc(C#N)c(Nc5cccc(N=S(C)(C)=O)n5)n4)c2C2CC2)CCCC3C1 (stereo not drawn) [Compound 42]
17,≤ 10,CN1Cc2c(F)c(Nc3ncc(C#N)c(Nc4cccc(N=S(C)(C)=O)n4)n3)cc3c2C(CCC3)C1 (stereo not drawn) [Compound 43]
18,≤ 10,COc1c(Nc2ncc(C#N)c(Nc3cccc(N=S(C)(C)=O)n3)n2)cc2c3c1CN(C)CC3CCC2 (stereo not drawn) [Compound 44]
19,≤ 10,CN1Cc2cc(Nc3ncc(C#N)c(Nc4cccc(N=S(C)(C)=O)n4)n3)nc3c2C(CCC3)C1 (stereo not drawn) [Compound 45]
20,≤ 10,Cc1c(Nc2ncc(C#N)c(Nc3cccc(N=S(C)(C)=O)n3)n2)cc2c3c1CCCC3CN(C)C2 (stereo not drawn) [Compound 46]
21,≤ 10,CN1Cc2cc(Nc3ncc(C#N)c(Nc4cccc(N=S(C)(C)=O)n4)n3)c(C3CC3)c3c2C(CCC3)C1 (stereo not drawn) [Compound 47]
22,≤ 10,CN1Cc2cc(Nc3ncc(C#N)c(Nc4cccc(N=S(C)(C)=O)n4)n3)c(F)c3c2C(CCC3)C1 (stereo not drawn) [Compound 48]

row,IC50 [nM],Structure (SMILES)
1,10 to 50,CN1Cc2cc(Nc3ncc(C#N)c(Nc4cccc(N=S(C)(C)=O)n4)n3)cc3c2[C@H](CC3)C1 [Compound 51]
2,10 to 50,CN1Cc2cc(Nc3ncc(C#N)c(Nc4cccc(N=S(C)(C)=O)n4)n3)cc3c2[C@@H](CC3)C1 [Compound 52]
3,10 to 50,CN1Cc2cc(Nc3ncc(C#N)c(Nc4cccc(N=S(C)(C)=O)n4)n3)cc3c2C(C)(CC3)C1 (stereo not drawn) [Compound 53]
4,10 to 50,CN1Cc2cc(Nc3ncc(C#N)c(Nc4cccc(N=S(C)(C)=O)n4)n3)cc3c2[C@](C)(CC3)C1 [Compound 54]
5,10 to 50,CN1Cc2cc(Nc3ncc(C#N)c(Nc4cccc(N=S(C)(C)=O)n4)n3)cc3c2[C@@](C)(CC3)C1 [Compound 55]
6,10 to 50,CN1Cc2cc(Nc3ncc(C#N)c(Nc4cccc(N=S(C)(C)=O)n4)n3)cc3c2C(CCCC3)C1 (stereo not drawn) [Compound 56]
7,≤ 10,CN1Cc2cc(Nc3ncc(C#N)c(Nc4cccc(N=S(C)(C)=O)n4)n3)cc3c2[C@H](CCCC3)C1 [Compound 57]
8,≤ 10,CN1Cc2cc(Nc3ncc(C#N)c(Nc4cccc(N=S(C)(C)=O)n4)n3)cc3c2[C@@H](CCCC3)C1 [Compound 58]
9,≤ 10,CN1Cc2cc(Nc3ncc(C#N)c(Nc4cccc(N=S(C)(C)=O)n4)n3)cc3c2C(C)(CCCC3)C1 (stereo not drawn) [Compound 59]
10,≤ 10,CN1Cc2cc(Nc3ncc(C#N)c(Nc4cccc(N=S(C)(C)=O)n4)n3)cc3c2[C@](C)(CCCC3)C1 [Compound 60]
11,≤ 10,CN1Cc2cc(Nc3ncc(C#N)c(Nc4cccc(N=S(C)(C)=O)n4)n3)cc3c2[C@@](C)(CCCC3)C1 [Compound 61]
12,≤ 10,CN1Cc2cc(Nc3ncc(C#N)c(Nc4cccc(N=S(C)(C)=O)n4)n3)cc3c2C(CCCCC3)C1 (stereo not drawn) [Compound 62]
13,≤ 10,CN1Cc2cc(Nc3ncc(C#N)c(Nc4cccc(N=S(C)(C)=O)n4)n3)cc3c2C(C)(CCCCC3)C1 (stereo not drawn) [Compound 63]
14,≤ 10,CN1Cc2cc(Nc3ncc(C#N)c(Nc4cccc(N=S(C)(C)=O)n4)n3)cc3c2C(CCS3)C1 (stereo not drawn) [Compound 65]
15,≤ 10,CN1Cc2cc(Nc3ncc(C#N)c(Nc4cccc(N=S(C)(C)=O)n4)n3)cc3c2C(COC3)C1 (stereo not drawn) [Compound 66]
16,≤ 10,CN1Cc2cc(Nc3ncc(C#N)c(Nc4cccc(N=S(C)(C)=O)n4)n3)cc3c2C(CSC3)C1 (stereo not drawn) [Compound 67]
17,≤ 10,CN1Cc2cc(Nc3ncc(C#N)c(Nc4cccc(N=S(C)(C)=O)n4)n3)cc3c2C(C1)OCC3 (stereo not drawn) [Compound 68]
18,≤ 10,CN1Cc2cc(Nc3ncc(C#N)c(Nc4cccc(N=S(C)(C)=O)n4)n3)cc3c2C(C1)SCC3 (stereo not drawn) [Compound 69]
19,≤ 10,CN1Cc2cc(Nc3ncc(C#N)c(Nc4cccc(N=S(C)(C)=O)n4)n3)cc3c2C(CO3)C1 (stereo not drawn) [Compound 70]
20,≤ 10,CN1Cc2cc(Nc3ncc(C#N)c(Nc4cccc(N=S(C)(C)=O)n4)n3)cc3c2C(CS3)C1 (stereo not drawn) [Compound 71]
21,≤ 10,CN1Cc2cc(Nc3ncc(C#N)c(Nc4cccc(N=S(C)(C)=O)n4)n3)cc3c2C(C1)OC3 (stereo not drawn) [Compound 72]
22,≤ 10,CN1Cc2cc(Nc3ncc(C#N)c(Nc4cccc(N=S(C)(C)=O)n4)n3)cc3c2C(C1)SC3 (stereo not drawn) [Compound 73]
